The text below walks through data of ChEMBL document CHEMBL1157764, “Conserved high activity binding peptides are involved in adhesion of two detergent-resistant membrane-associated merozoite proteins to red blood cells during invasion” (J Med Chem, 2010).

The species entered for the test is Homo sapiens. In words: Binding affinity to RBC membrane receptor in human RBCs assessed as specific binding activity measured as ratio of specifically bound peptide/added peptide by gamma counter.

Where a SMILES comes first, the peptide text is derived from it.

Turning to `CC[C@H](C)[C@H](NC(=O)[C@H](CCC(=O)O)NC(=O)[C@H](CC(N)=O)NC(=O)[C@H](CC(N)=O)NC(=O)CNC(=O)[C@H](CC(N)=O)NC(=O)[C@H](CC(C)C)NC(=O)[C@H](CS)NC(=O)[C@H](CCC(N)=O)NC(=O)[C@@H](NC(=O)[C@H](CCC(=O)O)NC(=O)[C@H](CS)NC(=O)[C@H](Cc1cnc[nH]1)NC(=O)[C@H](CC(C)C)NC(=O)[C@@H](NC(=O)[C@H](Cc1ccc(O)cc1)NC(=O)[C@H](CC(C)C)NC(=O)[C@H](CC(N)=O)NC(=O)CNC(=O)[C@@H](N)CCC(N)=O)C(C)C)C(C)C)C(=O)O` (H-QGNLYVLHCEVQCLNGNNEI-OH), the Activity was greater than 2%.

Regarding `CC[C@H](C)[C@H](NC(=O)[C@H](C)NC(=O)[C@@H](NC(=O)[C@H](Cc1ccccc1)NC(=O)[C@@H](NC(=O)[C@@H](NC(=O)[C@H](CC(N)=O)NC(=O)[C@@H](C)N)[C@@H](C)CC)[C@@H](C)CC)[C@@H](C)CC)C(=O)N[C@H](C(=O)N[C@@H](CO)C(=O)N[C@H](C(=O)N[C@H](C(=O)N[C@@H](CO)C(=O)N[C@@H](CC(C)C)C(=O)N[C@@H](CO)C(=O)N[C@H](C(=O)N[C@@H](CO)C(=O)N[C@@H](CO)C(=O)N[C@@H](Cc1ccccc1)C(=O)N[C@H](C(=O)N[C@@H](Cc1ccc(O)cc1)C(=O)O)[C@@H](C)CC)[C@@H](C)CC)[C@@H](C)CC)[C@@H](C)CC)[C@@H](C)CC`, the Activity is greater than 2%. Under H-TSEEKMILIFKCDNKFYITK-OH stands greater than 2%; under `CC[C@H](C)[C@H](NC(=O)[C@H](CC(C)C)NC(=O)[C@H](CS)NC(=O)[C@@H](NC(=O)[C@H](CC(C)C)NC(=O)[C@H](Cc1ccccc1)NC(=O)[C@H](CCC(N)=O)NC(=O)[C@H](CC(C)C)NC(=O)[C@H](CC(C)C)NC(=O)[C@H](CC(C)C)NC(=O)[C@@H](NC(=O)[C@H](Cc1cnc[nH]1)NC(=O)[C@H](CC(C)C)NC(=O)[C@@H](NC(=O)[C@H](Cc1ccccc1)NC(=O)[C@H](Cc1ccccc1)NC(=O)[C@@H]1CCCN1C(=O)[C@@H](NC(=O)[C@H](CCCCN)NC(=O)[C@@H](N)CCSC)[C@@H](C)CC)[C@@H](C)CC)[C@@H](C)CC)[C@@H](C)CC)C(=O)N[C@@H](Cc1ccc(O)cc1)C(=O)O`, greater than 2%; under H-EEQENEDSTDAEAIDKEEVEY-OH, greater than 2%. Under `CC[C@H](C)[C@H](N)C(=O)N[C@@H](Cc1cnc[nH]1)C(=O)N[C@@H](CCCCN)C(=O)N[C@@H](CCCNC(=N)N)C(=O)N[C@@H](CS)C(=O)N[C@@H](CC(N)=O)C(=O)N[C@@H](CC(=O)O)C(=O)N[C@@H](CC(=O)O)C(=O)N[C@H](C(=O)N[C@@H](CCC(=O)O)C(=O)N[C@@H](CCCCN)C(=O)N[C@@H](CCCCN)C(=O)N[C@@H](CS)C(=O)N[C@@H](CC(N)=O)C(=O)NCC(=O)N[C@@H](CC(N)=O)C(=O)N[C@@H](CC(N)=O)C(=O)N[C@@H](CCCCN)C(=O)N[C@@H](CS)C(=O)N[C@H](C(=O)N[C@@H](Cc1ccc(O)cc1)C(=O)O)[C@@H](C)CC)[C@@H](C)CC` (H-IHKRCNDDIEKKCNGNNKCIY-OH) stands greater than 2%; under H-SKINKELAHRTALFNKLADNY-OH, greater than 2%.

As for H-DGLNCFDNVYIKNKTLVKIE-OH, the Activity is greater than 2%.

Consider H-TLDIEKIEDINLEEVKMSLLY-OH, for which the Activity was greater than 2%. Under `CC[C@H](C)[C@H](NC(=O)[C@H](CC(=O)O)NC(=O)[C@H](CC(N)=O)NC(=O)[C@H](CC(N)=O)NC(=O)[C@@H](N)CCC(N)=O)C(=O)N[C@@H](CC(=O)O)C(=O)N[C@@H](Cc1cnc[nH]1)C(=O)N[C@@H](CO)C(=O)N[C@@H](CCC(=O)O)C(=O)N[C@@H](CC(=O)O)C(=O)N[C@@H](CCCCN)C(=O)N[C@@H](CCCCN)C(=O)N[C@@H](CC(C)C)C(=O)N[C@H](C(=O)N[C@@H](CO)C(=O)N[C@@H](CCCNC(=N)N)C(=O)N[C@H](C(=O)N[C@@H](CC(C)C)C(=O)N[C@@H](Cc1ccc(O)cc1)C(=O)N[C@@H](Cc1ccc(O)cc1)C(=O)O)C(C)C)[C@@H](C)CC` stands less than 2%; under `CC[C@H](C)[C@H](NC(=O)[C@@H](NC(=O)[C@H](CC(=O)O)NC(=O)[C@H](CC(N)=O)NC(=O)[C@H](Cc1cnc[nH]1)NC(=O)[C@@H](NC(=O)[C@H](Cc1ccc(O)cc1)NC(=O)[C@H](CS)NC(=O)[C@@H](N)CCCNC(=N)N)C(C)C)C(C)C)C(=O)N[C@@H](CCCCN)C(=O)N[C@@H](Cc1ccccc1)C(=O)NCC(=O)N[C@@H](CCC(=O)O)C(=O)N[C@@H](CCC(=O)O)C(=O)N[C@@H](CC(N)=O)C(=O)N[C@@H](CO)C(=O)N[C@@H](CC(C)C)C(=O)N[C@@H](CCCCN)C(=O)N[C@@H](CS)C(=O)N[C@@H](CO)C(=O)O`, greater than 2%; under H-FEVRLPKDIKVTENCFRYSF-OH, greater than 2%. Under `CC[C@H](C)[C@H](NC(=O)[C@H](Cc1ccc(O)cc1)NC(=O)[C@H](CCC(=O)O)NC(=O)[C@H](CO)NC(=O)[C@@H](NC(=O)[C@H](CC(=O)O)NC(=O)[C@H](CCCCN)NC(=O)[C@H](CC(C)C)NC(=O)[C@H](CCCCN)NC(=O)[C@@H](NC(=O)[C@H](CCC(=O)O)NC(=O)[C@H](CS)NC(=O)[C@H](Cc1ccccc1)NC(=O)[C@@H]1CCCN1C(=O)[C@H](CO)NC(=O)[C@@H](N)Cc1cnc[nH]1)[C@@H](C)CC)[C@@H](C)CC)C(=O)N[C@@H](CCCNC(=N)N)C(=O)N[C@@H](CCCCN)C(=O)N[C@@H](CCCCN)C(=O)N[C@@H](CS)C(=O)O` (H-HSPFCEIKLKDISEYIRKKC-OH) stands greater than 2%. Consider `CC(C)C[C@H](NC(=O)[C@H](CC(N)=O)NC(=O)[C@H](CC(C)C)NC(=O)[C@@H]1CCCN1C(=O)[C@H](CC(N)=O)NC(=O)[C@H](CCCCN)NC(=O)[C@H](Cc1ccc(O)cc1)NC(=O)[C@@H](N)CS)C(=O)N[C@@H](CCCCN)C(=O)N[C@H](C(=O)N[C@@H](CC(C)C)C(=O)N[C@@H](CCC(=O)O)C(=O)N[C@H](C(=O)N[C@@H](CC(C)C)C(=O)N[C@@H](CC(C)C)C(=O)N[C@@H](CCCCN)C(=O)N[C@@H](CCCCN)C(=O)N[C@@H](CC(N)=O)C(=O)N[C@@H](Cc1ccc(O)cc1)C(=O)N[C@@H](Cc1ccc(O)cc1)C(=O)O)C(C)C)C(C)C`, for which the Activity was greater than 2%.

`CC[C@H](C)[C@H](NC(=O)[C@H](CO)NC(=O)[C@H](CCCCN)NC(=O)[C@@H](N)CC(=O)O)C(=O)N[C@H](C(=O)N[C@@H](Cc1cnc[nH]1)C(=O)N[C@@H](Cc1ccccc1)C(=O)N[C@@H](Cc1ccc(O)cc1)C(=O)N[C@@H](CS)C(=O)N[C@@H](CCC(=O)O)C(=O)N[C@@H](CS)C(=O)N[C@@H](CC(N)=O)C(=O)N[C@H](C(=O)N[C@@H](CC(N)=O)C(=O)N[C@@H](CC(N)=O)C(=O)N[C@@H](CC(N)=O)C(=O)N[C@H](C(=O)N[C@H](C(=O)N[C@@H](CCCCN)C(=O)N[C@H](C(=O)O)C(C)C)[C@@H](C)CC)C(C)C)C(C)C)[C@@H](C)CC` (H-DKSIIHFYCECNVNNNVIKV-OH): the Activity was greater than 2%. Under `CC[C@H](C)[C@H](NC(=O)[C@H](CC(=O)O)NC(=O)[C@H](CCCCN)NC(=O)[C@H](CCC(=O)O)NC(=O)[C@H](CC(=O)O)NC(=O)[C@H](CCC(N)=O)NC(=O)[C@@H]1CCCN1C(=O)[C@H](NC(=O)[C@@H](NC(=O)[C@H](CCCCN)NC(=O)[C@H](CC(N)=O)NC(=O)[C@H](NC(=O)[C@H](CCSC)NC(=O)[C@@H](NC(=O)[C@@H](NC(=O)[C@H](CCC(=O)O)NC(=O)[C@H](CCC(N)=O)NC(=O)[C@@H](N)CC(=O)O)[C@@H](C)CC)[C@@H](C)O)[C@@H](C)CC)[C@H](C)O)[C@@H](C)CC)C(=O)N[C@@H](CC(C)C)C(=O)N[C@@H](Cc1ccccc1)C(=O)N[C@@H](Cc1ccc(O)cc1)C(=O)O` stands greater than 2%; under H-VHFMAGGQKYKYEGIDLTDS-OH, greater than 2%.
